Data published in patent US20130102645A1, “Methods and compositions for controlling vascularization in ophthalmological and dermatological diseases” (AVIENNE PHARMACEUTICALS GMBH, priority 2011, published 2013).
Converted amounts (≈) assume the structure as drawn. “Also recorded” adds a separate entry of the source. Read-outs that look alike come from different tables or passages of the source.

Tests used:
ocular angiogenesis = experiment: conjunctival incision angiogenesis model in pigs, eye drops; format: in vivo, pig
Source text: AV-398 inhibits ocular angiogenesis in vivo in a widely accepted large animal model. The cornea is an ideal model system for angiogenesis in general, and more specifically for angiogenesis of the eye. The corneal angiogenesis assay is one of the most widely used in vivo assay for the evaluation of factors influencing angiogenesis (Auerbach R, 2003, Thiele W, 2006). One reason that makes the cornea an ideal object for observing neovascularization is its normal lack of vascularity, maintained by different molecular mechanisms. New vessels can easily be identified by visual inspection alone and quantified with the help of computerized image analysis programs. The effect of an ophthalmological formulation of AV-398 after a conjunctival insult with subsequent angiogenesis in a large animal model was investigated in order to test whether the in vitro data, such as anti-proliferative effects on human endothelial cells, could be reproduced in vivo.
Six white pigs weighing 10 to 15 kg were included. First, corneae and conjunctivae were anaesthesized by local application of lidocaine 4%. Then, an incision of 0.5 cm length through the conjunctival tunica sclerae to the substantia propria was placed in parallel to the dorsal corneal limbus at a distance of approximately 2 mm. The animals were treated as follows. The right eye of each animal was treated with a commercially available ocular eye drop solution (PROTAGENT® EYE DROPS 2%) containing 100 μg/ml of AV-398. The corresponding left eyes of each animal were control-treated with the same eye drop solution alone. Two droplets (˜100 μl) of AV-398 were applied in the right eye immediately after setting of the incision and two droplets of the ophthalmologic carrier formula as negative control in the left eye of the same animal. Animals received AV-398 as well as the eye drops 0.5 hrs post incision and the same treatment at 3 hrs post incision.

[1] = rat pharmacokinetics, plasma LC-MS/MS; format: in vivo; conditions: for half-life: iv, 5 mg/kg
Experimental: (§1) Preliminary pharmacokinetic and preliminary toxicology information was obtained following a single intravenous dose of 5 mg/kg and a single 20 mg/kg PO dose to male Sprague-Dawley rats for 5 separate test articles. AV-398 was dosed both via the IV and PO routes. Blood was collected from the animals in Groups 1 through 10 for pharmacokinetic analysis. Approximately 0.25 mL of blood was collected in potassium EDTA tubes via the jugular cannulae for all time points. For all IV treated animals, blood was collected at 9 time points (0.083, 0.25, 0.5, 1, 2, 4, 6, 8 and 12 hour post-dose) via the jugular cannulae. For all animals treated by oral gavage, blood was collected at 7 time points (0.5, 1, 2, 4, 6, 8 and 12 hour post-dose) via the jugular cannulae. At the final time point additional blood volume was collected in a separate EDTA tube from each animal for clinical pathology evaluation (including serum chemistry and hematology). Predose samples were collected from the extra animals which were not assigned to any of the dose groups. The plasma samples were analyzed by LC-MS/MS to determine the plasma concentrations of drug candidates. Pharmacokinetic analysis of the plasma concentration data was conducted using non-compartmental analysis with WinNonlin Version 4.1. […] The oral absorption of AV-398 when administered at 20 mg/kg dose as a suspension was low at an average of 8.4%.

endothelial cell lines = experiment: proliferation assay of primary endothelial cells, direct cell counting; format: cell-based, human
Experimental: Primary endothelial cell lines (HMVEC-dLyAd—human dermal lymphatic microvascular endothelial cells (EC), dermal blood microvascular EC, HMVEC-LB lung blood microvascular EC, HMVEC-C cardiac human microvascular endothelial cells and MVEC-d—dermal microvascular EC) are from Cambrex Bio Science (Cambrex Bio Science Walkersville Inc., Walkersville, Md., USA). Cell lines are cultured according to the manufacturer's recommendations.
For proliferation assays, cells are seeded in 24- to 96-well plates in medium at different concentrations according to the cell type. After 24 hours, the medium is removed and replaced with fresh medium containing increasing concentrations of the compounds. The plates are then incubated for additional 24 to 72 hours, depending on the type of the experiment. Cells are then trypsinized and collected for direct counting. Results are plotted and expressed as means (±SE) for each compound and for a given concentration.

[2] = test system: SAOS-2, Hela, HT29, U87MG and SK-N-DZ cells; experiment: cytotoxic activity in cancer cell lines by cell numbers; format: cell-based; conditions: up to 20 μM; uncoated dishes or coated with vitronectin or fibrinogen
Experimental: For example, cytotoxic activity of AV-398 was determined in several cancer cell lines (SAOS-2, Hela, HT29, U87MG and SK-N-DZ cells) by assessing cell numbers after treating cell lines with varying concentration of up to 20 μM. Experiments were performed either on uncoated dishes, or on dishes coated with vitronectin or fibrinogen. In addition, tumor cell lines were treated in parallel with echistatin (Gan Z R et al (1998)). […] Similar data were recently published showing cytotoxic activity also only against MDA-MB-435 breast cancer cells (Dayam R et al, 2006).

[3] = rat clinical pathology (serum chemistry and hematology); format: in vivo; conditions: rats, single 5 mg/kg IV or 20 mg/kg PO
Experimental: as §1

αvβ3-receptor = αvβ3-receptor (Homo sapiens, UniProt P05106+P06756); conditions: cited from earlier work
solubility = format: physicochemical
Experimental: Sufficiently concentrated solutions are readily achievable. AV-398 is soluble in PBS 7.4 at 100 μg/ml, in Tris.Cl buffer at 1 mg/ml, and as a sodium salt at least up to 20 mg/ml.

MDA-MB-435 = experiment: cytotoxic activity in breast cancer cell line; format: cell-based; conditions: up to 20 μM
HUVEC = experiment: growth inhibition of HUVEC cell lines; format: cell-based; conditions: Homo sapiens, read-out: IC50 for growth inhibition of HUVECs
Experimental: For proliferation assays, cells are seeded in 24- to 96-well plates in medium at different concentrations according to the cell type. […] Cells are then trypsinized and collected for direct counting. Results are plotted and expressed as means (±SE) for each compound and for a given concentration.
In Table 2, the group “R” is defined as follows: […]

[4] = test system: chorioallantoic membrane (CAM) of the developing chicken embryo; experiment: chicken egg chorioallantoic membrane (CAM) assay; format: in vivo; conditions: applied on CAM day 6 p.f., incubated until day 11 p.f.
Source text: Local application of AV-398 inhibits in vivo angiogenesis as evidenced by the chicken egg chorioallantoic membrane model. The chorioallantoic membrane (CAM) of the developing chicken embryo serves as an alternative to the traditional mammalian in vivo models, and further corroborates the findings in pigs described above and has clear relevance for the treatment e.g. dermatological indications linked to neoangiogenesis. AV-398 was applied over 5 days.
Eggs were opened on day 6 post fertilization (p.f.). Substances (200 μl respectively) were applied on the CAM on day 6 p.f. and incubated until day 11 p.f. As a vehicle control, 1% DMSO in PBS (phosphate-buffered saline solution pH 7.4) without AV-398 was used. Eggs were inspected daily by stereo-microscopy and pictures were taken (6× magnification).

endothelial cells = conditions: read-out: IC50, colony-forming ability of endothelial cells; cited from earlier work

αvβ3-receptor, sequence (P06756 31-889 limits assumed): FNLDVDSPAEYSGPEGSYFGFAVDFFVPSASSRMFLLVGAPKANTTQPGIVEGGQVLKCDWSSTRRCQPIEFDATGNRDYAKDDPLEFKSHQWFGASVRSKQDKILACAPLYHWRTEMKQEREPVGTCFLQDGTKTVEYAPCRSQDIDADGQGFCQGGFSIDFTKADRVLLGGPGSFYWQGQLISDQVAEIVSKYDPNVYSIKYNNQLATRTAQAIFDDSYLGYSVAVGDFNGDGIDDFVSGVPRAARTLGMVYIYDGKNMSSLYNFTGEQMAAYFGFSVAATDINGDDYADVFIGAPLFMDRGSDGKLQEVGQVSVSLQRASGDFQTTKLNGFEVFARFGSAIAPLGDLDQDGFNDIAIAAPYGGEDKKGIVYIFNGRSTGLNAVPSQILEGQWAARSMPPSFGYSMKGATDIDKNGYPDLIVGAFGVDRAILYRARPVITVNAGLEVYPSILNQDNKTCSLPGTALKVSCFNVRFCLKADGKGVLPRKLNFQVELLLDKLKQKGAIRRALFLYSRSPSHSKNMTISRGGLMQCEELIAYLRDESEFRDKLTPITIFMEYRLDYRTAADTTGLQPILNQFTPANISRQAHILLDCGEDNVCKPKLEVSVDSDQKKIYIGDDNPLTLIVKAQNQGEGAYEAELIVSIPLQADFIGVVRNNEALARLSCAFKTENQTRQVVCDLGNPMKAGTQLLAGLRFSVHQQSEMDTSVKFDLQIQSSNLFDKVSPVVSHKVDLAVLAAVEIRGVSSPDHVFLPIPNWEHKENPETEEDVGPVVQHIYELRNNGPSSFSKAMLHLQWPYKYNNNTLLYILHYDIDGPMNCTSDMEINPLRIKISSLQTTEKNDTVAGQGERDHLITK
αvβ3-receptor, sequence (P06756 891-1048 partner limits assumed): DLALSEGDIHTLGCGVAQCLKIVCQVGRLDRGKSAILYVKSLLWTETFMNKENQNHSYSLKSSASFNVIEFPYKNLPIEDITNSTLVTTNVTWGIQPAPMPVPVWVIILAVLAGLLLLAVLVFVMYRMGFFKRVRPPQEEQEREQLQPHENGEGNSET
αvβ3-receptor, sequence (P05106 27-788): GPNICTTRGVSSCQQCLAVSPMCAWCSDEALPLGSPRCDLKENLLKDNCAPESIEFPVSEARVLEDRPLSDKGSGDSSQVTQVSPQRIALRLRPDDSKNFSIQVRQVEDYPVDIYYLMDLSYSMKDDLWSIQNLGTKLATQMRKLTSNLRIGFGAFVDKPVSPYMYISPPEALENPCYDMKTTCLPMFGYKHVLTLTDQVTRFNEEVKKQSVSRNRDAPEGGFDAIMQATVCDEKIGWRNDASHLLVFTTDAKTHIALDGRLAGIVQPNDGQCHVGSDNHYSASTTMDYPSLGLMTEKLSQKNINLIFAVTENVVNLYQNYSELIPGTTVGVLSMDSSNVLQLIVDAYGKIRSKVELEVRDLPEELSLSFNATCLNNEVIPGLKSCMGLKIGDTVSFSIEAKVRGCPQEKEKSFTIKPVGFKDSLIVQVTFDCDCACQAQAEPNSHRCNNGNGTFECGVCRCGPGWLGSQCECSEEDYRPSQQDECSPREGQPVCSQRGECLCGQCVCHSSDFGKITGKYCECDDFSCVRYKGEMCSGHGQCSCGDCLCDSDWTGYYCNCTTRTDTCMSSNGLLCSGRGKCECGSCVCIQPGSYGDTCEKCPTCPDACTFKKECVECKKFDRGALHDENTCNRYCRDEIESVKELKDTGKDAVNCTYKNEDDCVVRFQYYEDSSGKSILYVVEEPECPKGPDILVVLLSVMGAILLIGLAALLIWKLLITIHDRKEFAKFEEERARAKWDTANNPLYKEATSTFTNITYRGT

Question: With CCOc1cc(C=C2S/C(=N/c3ccc(C(=O)O)cc3)N(C)C2=O)ccc1O (stereo in doubt) [AV-398, 4-({5-[(E)-1-(3-ethoxy-4-hydroxyphenyl)methylidene]-3-methyl-4-oxo-1,3-thiazolan-2-yliden}amino)benzoic acid] as the molecule, how does the “neoangiogenesis on conjunctivae vs control-treated eyes” value (ocular angiogenesis; eye drops 100 μg/ml, right eye, left eye vehicle) read?
Answer: Its value is “diminished neoangiogenesis”.

Question: And the “bleeding surrounding the incision” value (ocular angiogenesis; immediately after treatment)?
Answer: Its value is “marked diffuse bleeding”.

Question: And the “local or systemic adverse side effects” value (ocular angiogenesis; three weeks post incision)?
Answer: Its value is “no local or systemic adverse side effects”.

Question: What about the “oral absorption (average)” value ([1]; 20 mg/kg as a suspension) of the same molecule?
Answer: Its value is 8.4%.

Question: What about the “peak plasma concentration (average)” value ([1]; IV 5 mg/kg) of the same molecule?
Answer: Its value is 1736.56 ng/mL.

Question: What about the “time of peak plasma concentration” value ([1]; IV 5 mg/kg) of the same molecule?
Answer: Its value is 0.083 h.

Question: What about the “peak plasma concentration (mean)” value ([1]; PO 20 mg/kg suspension) of the same molecule?
Answer: Its value is 54.07 ng/mL.

Question: What about the AUC(0-inf) ([1]; male, Sprague-Dawley, plasma, IV 5 mg/kg) of the same molecule?
Answer: Its AUC(0-inf) is 690 ng·h/mL.

Question: What about the AUC(0-t) ([1]; male, Sprague-Dawley, plasma, PO 20 mg/kg suspension, read-out: average AUC (0-12 hr)) of the same molecule?
Answer: The AUC(0-t) was 234 ng·h/mL.

Question: And the half-life ([1]; male, Sprague-Dawley, plasma, IV 5 mg/kg, read-out: Terminal plasma half-life (converted))?
Answer: Its half-life is 30 min.

Question: And the half-life ([1]; male, Sprague-Dawley, plasma, IV 5 mg/kg, read-out: terminal plasma half-life (range))?
Answer: Its half-life is 10.8 to 40.8 min.

Question: And the half-life ([1]; male, Sprague-Dawley, plasma, after intravenous administration, read-out: terminal plasma half-life (converted))?
Answer: Its half-life is 30 min.

Question: What about the IC50 (endothelial cell lines; Homo sapiens, Endothelial cell, endothelial cells (lung, lymphatics, umbilical), FIGS. 1-3, read-out: Half-maximal growth inhibition) of the same molecule?
Answer: The IC50 was 400 nM.

Question: What about the IC50 (endothelial cell lines; Homo sapiens, endothelial cell lines, read-out: 50% inhibitory concentration) of the same molecule?
Answer: Its IC50 is 200 to 500 nM.

Question: What about the “effects on cancer cell lines (cytotoxic activity)” value [2] of the same molecule?
Answer: The value was “no meaningful effects”.

Question: What about the “effects on hematological and serum chemistry parameters” value [3] of the same molecule?
Answer: Its value is “no side-related effects”.

Question: And the αυβ3 binding affinity (αvβ3-receptor)?
Answer: The αυβ3 binding affinity was 240 nM.

Question: And the solubility (solubility; Tris.Cl buffer, aqueous buffer)?
Answer: Its solubility is 1000 µg/mL (≈ 2510 µM).

Question: And the solubility (solubility; as a sodium salt)?
Answer: Its solubility is at least 20000 µg/mL.

Question: And the solubility (solubility; pH 7.4, aqueous buffer, PBS 7.4)?
Answer: The solubility was 100 µg/mL (≈ 251 µM).

Question: And the “activity against breast cancer cell line MDA-MB-435” value (MDA-MB-435)?
Answer: Its value is “limited activity”.

Question: What about the IC50 (HUVEC) of the same molecule?
Answer: Its IC50 is under 300 nM.

Question: What about the “vascularization of CAM / chicken embryo vs vehicle control” value [4] of the same molecule?
Answer: Its value is “markedly decreased vascularization; also recorded: significant reduction of vascularization”.

Question: With CC(C)[C@H]1C(=O)N[C@@H](CCCN=C(N)N)C(=O)NCC(=O)N[C@@H](CC(=O)O)C(=O)N[C@H](Cc2ccccc2)C(=O)N1C [Cilengitide, cycloL-Arg-Gly-L-Asp-D-Phe-N [Me] L-Val] as the molecule, how does the IC50 (endothelial cells) read?
Answer: The IC50 was 6700 ± 1200 nM.

Question: Which IC50 (endothelial cell lines; endothelial cells (lung, lymphatics, umbilical), FIGS. 1-3, read-out: Half-maximal growth inhibition) does the source give for echistatin [reference compound] here?
Answer: Its IC50 is 800 nM.
